Assay results published in the NIST ThermoML archive (doi:10.1021/je700032n).
“And” between values parts separate entries of the source, which are not always exact repeats. Equal values may be shown once. ± gives the expanded uncertainty stated by the source.

Conditions: Liquid; for viscosity: Falling or rolling sphere viscometry; for mass density: 101.33 kPa, Vibrating tube method

**Q.** What does the source list for `CCCCCCn1cc[n+](C)c1.F[P-](F)(F)(F)(F)F` [1-hexyl-3-methylimidazolium hexafluorophosphate]?
**A.** viscosity (273.15 K, 100 kPa): 3924 ± 590 mPa·s; mass density (273.15 K): 1313.39 ± 9.4 kg/m3; viscosity (278.15 K, 100 kPa): 2428 ± 330 mPa·s; mass density (278.15 K): 1309.33 ± 9.3 kg/m3; viscosity (283.15 K, 100 kPa): 1566 ± 190 mPa·s and 1565 ± 190 mPa·s; mass density (283.15 K): 1305.29 ± 9.3 kg/m3; viscosity (288.15 K, 100 kPa): 1036 ± 110 mPa·s and 1035 ± 110 mPa·s; mass density (288.15 K): 1301.26 ± 9.2 kg/m3; viscosity (293.15 K, 100 kPa): 705.1 ± 66 mPa·s; mass density (293.15 K): 1297.24 ± 9.2 kg/m3; viscosity (298.15 K, 100 kPa): 496.4 ± 41 mPa·s and 496.5 ± 41 mPa·s; mass density (298.15 K): 1293.22 ± 9.1 kg/m3; viscosity (298.15 K, 22000 kPa): 685.3 ± 63 mPa·s; viscosity (298.15 K, 42100 kPa): 917.7 ± 93 mPa·s; viscosity (298.15 K, 60300 kPa): 1190 ± 130 mPa·s; viscosity (298.15 K, 80300 kPa): 1572 ± 190 mPa·s; viscosity (298.15 K, 100100 kPa): 2064 ± 260 mPa·s; viscosity (303.15 K, 100 kPa): 356.9 ± 26 mPa·s and 356.8 ± 26 mPa·s; mass density (303.15 K): 1289.21 ± 9.1 kg/m3; viscosity (313.15 K, 100 kPa): 197 ± 11 mPa·s; mass density (313.15 K): 1281.17 ± 8.9 kg/m3; viscosity (313.15 K, 400 kPa): 197.3 ± 11 mPa·s; viscosity (313.15 K, 25700 kPa): 276.7 ± 18 mPa·s; viscosity (313.15 K, 50800 kPa): 381.8 ± 28 mPa·s; viscosity (313.15 K, 76000 kPa): 521.9 ± 44 mPa·s; viscosity (313.15 K, 101400 kPa): 708.3 ± 67 mPa·s; viscosity (313.15 K, 125200 kPa): 939.3 ± 96 mPa·s; viscosity (313.15 K, 150000 kPa): 1254 ± 140 mPa·s; viscosity (323.15 K, 100 kPa): 119.2 ± 5.1 mPa·s and 117 ± 5 mPa·s; mass density (323.15 K): 1273.44 ± 8.8 kg/m3; viscosity (323.15 K, 7600 kPa): 118.3 ± 5 mPa·s; viscosity (323.15 K, 25800 kPa): 161.7 ± 8.1 mPa·s; viscosity (323.15 K, 50600 kPa): 217.1 ± 12 mPa·s; viscosity (323.15 K, 76000 kPa): 290.7 ± 19 mPa·s; viscosity (323.15 K, 100900 kPa): 384 ± 29 mPa·s; viscosity (323.15 K, 125800 kPa): 503.9 ± 42 mPa·s; viscosity (323.15 K, 150100 kPa): 655 ± 59 mPa·s; viscosity (323.15 K, 174800 kPa): 850.1 ± 84 mPa·s; viscosity (333.15 K, 100 kPa): 75.2 ± 2.7 mPa·s and 74.4 ± 2.6 mPa·s; mass density (333.15 K): 1265.69 ± 8.7 kg/m3 and 1265.68 ± 8.7 kg/m3; viscosity (333.15 K, 40500 kPa): 118.5 ± 5 mPa·s; viscosity (333.15 K, 80800 kPa): 182.8 ± 9.5 mPa·s; viscosity (333.15 K, 120800 kPa): 275.7 ± 18 mPa·s; viscosity (333.15 K, 160600 kPa): 408.7 ± 31 mPa·s; viscosity (333.15 K, 200100 kPa): 598.9 ± 52 mPa·s; viscosity (343.15 K, 100 kPa): 49.7 ± 1.7 mPa·s; mass density (343.15 K): 1257.96 ± 8.6 kg/m3; viscosity (348.15 K, 100 kPa): 41.3 ± 1.4 mPa·s; viscosity (348.15 K, 800 kPa): 41.9 ± 1.4 mPa·s; viscosity (348.15 K, 40700 kPa): 63.7 ± 2.2 mPa·s; viscosity (348.15 K, 80800 kPa): 94.2 ± 3.7 mPa·s; viscosity (348.15 K, 120700 kPa): 136.4 ± 6.3 mPa·s; viscosity (348.15 K, 160600 kPa): 194.8 ± 11 mPa·s; viscosity (348.15 K, 200200 kPa): 274.5 ± 18 mPa·s; viscosity (348.15 K, 238500 kPa): 378 ± 28 mPa·s; viscosity (353.15 K, 100 kPa): 34.8 ± 1.2 mPa·s; mass density (353.15 K): 1250.28 ± 8.5 kg/m3; mass density (363.15 K): 1242.64 ± 8.4 kg/m3

**Q.** With `CCCC[n+]1ccn(C)c1.O=S(=O)([N-]S(=O)(=O)C(F)(F)F)C(F)(F)F` as the molecule, how does the viscosity (273.15 K, 100 kPa) read?
**A.** 191.3 ± 10 mPa·s and 191.6 ± 10 mPa·s

**Q.** And the mass density (273.15 K)?
**A.** 1460.67 ± 12 kg/m3

**Q.** And the viscosity (278.15 K, 100 kPa)?
**A.** 140.4 ± 6.6 mPa·s

**Q.** And the mass density (278.15 K)?
**A.** 1455.84 ± 12 kg/m3

**Q.** And the viscosity (283.15 K, 100 kPa)?
**A.** 106.1 ± 4.4 mPa·s

**Q.** And the mass density (283.15 K)?
**A.** 1451.04 ± 12 kg/m3

**Q.** What about the viscosity (283.15 K, 24300 kPa) of the same molecule?
**A.** 146.8 ± 6.9 mPa·s

**Q.** And the viscosity (283.15 K, 49900 kPa)?
**A.** 205.8 ± 11 mPa·s

**Q.** And the viscosity (283.15 K, 74100 kPa)?
**A.** 280.3 ± 18 mPa·s

**Q.** And the viscosity (288.15 K, 100 kPa)?
**A.** 81.6 ± 3 mPa·s

**Q.** And the mass density (288.15 K)?
**A.** 1446.23 ± 11 kg/m3

**Q.** And the viscosity (293.15 K, 100 kPa)?
**A.** 63.8 ± 2.2 mPa·s and 63.9 ± 2.2 mPa·s

**Q.** What about the mass density (293.15 K) of the same molecule?
**A.** 1441.43 ± 11 kg/m3 and 1441.42 ± 11 kg/m3

**Q.** And the viscosity (298.15 K, 100 kPa)?
**A.** 50.9 ± 1.7 mPa·s and 51 ± 1.7 mPa·s and 51.1 ± 1.7 mPa·s

**Q.** And the mass density (298.15 K)?
**A.** 1436.64 ± 11 kg/m3 and 1436.6 ± 11 kg/m3

**Q.** And the viscosity (298.15 K, 24300 kPa)?
**A.** 68.1 ± 2.3 mPa·s

**Q.** And the viscosity (298.15 K, 49300 kPa)?
**A.** 90.9 ± 3.4 mPa·s

**Q.** What about the viscosity (298.15 K, 76900 kPa) of the same molecule?
**A.** 124 ± 5.4 mPa·s

**Q.** And the viscosity (298.15 K, 101500 kPa)?
**A.** 161.5 ± 7.8 mPa·s

**Q.** What about the viscosity (298.15 K, 126400 kPa) of the same molecule?
**A.** 210.3 ± 12 mPa·s

**Q.** And the viscosity (298.15 K, 150200 kPa)?
**A.** 269.4 ± 17 mPa·s

**Q.** What about the viscosity (303.15 K, 100 kPa) of the same molecule?
**A.** 41.5 ± 1.4 mPa·s

**Q.** What about the mass density (303.15 K) of the same molecule?
**A.** 1431.86 ± 11 kg/m3

**Q.** And the viscosity (313.15 K, 100 kPa)?
**A.** 28.5 ± 1 mPa·s

**Q.** And the mass density (313.15 K)?
**A.** 1422.34 ± 11 kg/m3

**Q.** And the viscosity (323.15 K, 100 kPa)?
**A.** 20.5 ± 0.7 mPa·s and 20.6 ± 0.7 mPa·s and 20.7 ± 0.7 mPa·s

**Q.** And the mass density (323.15 K)?
**A.** 1412.87 ± 11 kg/m3 and 1412.85 ± 11 kg/m3

**Q.** And the viscosity (323.15 K, 26400 kPa)?
**A.** 26.9 ± 0.9 mPa·s

**Q.** And the viscosity (323.15 K, 35600 kPa)?
**A.** 29.2 ± 1 mPa·s

**Q.** What about the viscosity (323.15 K, 52000 kPa) of the same molecule?
**A.** 34.6 ± 1.2 mPa·s

**Q.** And the viscosity (323.15 K, 53900 kPa)?
**A.** 34.8 ± 1.2 mPa·s

**Q.** And the viscosity (323.15 K, 69800 kPa)?
**A.** 40.2 ± 1.4 mPa·s

**Q.** And the viscosity (323.15 K, 75000 kPa)?
**A.** 41.6 ± 1.5 mPa·s

**Q.** What about the viscosity (323.15 K, 101600 kPa) of the same molecule?
**A.** 53.9 ± 2.3 mPa·s

**Q.** And the viscosity (323.15 K, 103600 kPa)?
**A.** 54.4 ± 2.3 mPa·s

**Q.** And the viscosity (323.15 K, 123600 kPa)?
**A.** 64.3 ± 2.2 mPa·s

**Q.** What about the viscosity (323.15 K, 152800 kPa) of the same molecule?
**A.** 83.6 ± 3.1 mPa·s

**Q.** And the viscosity (323.15 K, 200300 kPa)?
**A.** 123.2 ± 5.3 mPa·s

**Q.** And the viscosity (323.15 K, 226000 kPa)?
**A.** 151.2 ± 7.1 mPa·s

**Q.** And the viscosity (323.15 K, 249600 kPa)?
**A.** 183.2 ± 9.4 mPa·s

**Q.** And the viscosity (333.15 K, 100 kPa)?
**A.** 15.4 ± 0.5 mPa·s and 15.5 ± 0.5 mPa·s

**Q.** What about the mass density (333.15 K) of the same molecule?
**A.** 1403.48 ± 11 kg/m3

**Q.** And the viscosity (343.15 K, 100 kPa)?
**A.** 12 ± 0.4 mPa·s

**Q.** What about the mass density (343.15 K) of the same molecule?
**A.** 1394.15 ± 11 kg/m3

**Q.** And the viscosity (348.15 K, 100 kPa)?
**A.** 10.6 ± 0.4 mPa·s and 10.7 ± 0.4 mPa·s

**Q.** What about the viscosity (348.15 K, 800 kPa) of the same molecule?
**A.** 10.7 ± 0.4 mPa·s

**Q.** And the viscosity (348.15 K, 25700 kPa)?
**A.** 13.4 ± 0.5 mPa·s

**Q.** And the viscosity (348.15 K, 50700 kPa)?
**A.** 16.4 ± 0.6 mPa·s

**Q.** What about the viscosity (348.15 K, 75600 kPa) of the same molecule?
**A.** 19.9 ± 0.7 mPa·s

**Q.** What about the viscosity (348.15 K, 100900 kPa) of the same molecule?
**A.** 24.2 ± 0.8 mPa·s

**Q.** What about the viscosity (348.15 K, 125500 kPa) of the same molecule?
**A.** 29 ± 1 mPa·s

**Q.** And the viscosity (348.15 K, 150600 kPa)?
**A.** 34.6 ± 1.2 mPa·s

**Q.** And the viscosity (348.15 K, 175400 kPa)?
**A.** 40.9 ± 1.4 mPa·s

**Q.** What about the viscosity (348.15 K, 175600 kPa) of the same molecule?
**A.** 41 ± 1.4 mPa·s

**Q.** And the viscosity (348.15 K, 200600 kPa)?
**A.** 48.6 ± 1.7 mPa·s

**Q.** What about the viscosity (348.15 K, 225400 kPa) of the same molecule?
**A.** 57.4 ± 2 mPa·s

**Q.** What about the viscosity (348.15 K, 249700 kPa) of the same molecule?
**A.** 67.3 ± 2.4 mPa·s

**Q.** What about the viscosity (348.15 K, 274500 kPa) of the same molecule?
**A.** 79 ± 2.9 mPa·s

**Q.** And the viscosity (348.15 K, 298900 kPa)?
**A.** 92.6 ± 3.6 mPa·s

**Q.** And the viscosity (353.15 K, 100 kPa)?
**A.** 9.53 ± 0.32 mPa·s

**Q.** What about the mass density (353.15 K) of the same molecule?
**A.** 1384.88 ± 10 kg/m3

**Q.** What about the mass density (363.15 K) of the same molecule?
**A.** 1375.67 ± 10 kg/m3
